In patent US6833478B2 (priority 2001, dated 2004):
Counter-ions that a name gives are not always drawn.

Experiment: Volume of water needed to dissolve
Type: physicochemical
Settings: 1 mmole (782 mg)
Description: Evidently, dinitramide ion quenches the fluorescence of protonated quinine.

C=C[C@H]1C[N@@]2CC[C@H]1C[C@H]2[C@H](O)c1ccnc2ccc(OC)cc12 [quinine sulfate]
water required to dissolve: 900 mL
